From patent US20240041042A1, “1-(PYRIDYL)-5-AZINYLPYRAZOLE DERIVATIVES, AND THEIR USE FOR CONTROL OF UNDESIRED PLANT GROWTH” (Bayer Aktiengesellschaft, priority 2020, published 2024)
Where two headings read alike, the source gives them in different places.

How the values were obtained:
Type in all cases: in vivo
Viola tricolor (VIOTR) [1] = assay: Pre-emergence herbicidal action against VIOTR
How it was run: (§1)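 Pre-emergence soil-surface spray, WP/EC formulation, 0.5% additive, 600 l/ha water, rates of 320 g/ha or lower. Greenhouse, ~3 wk. Visual score, % of untreated control (100% = plants dead, 0% = like control).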

Oryza sativa (ORYSA) = conditions: crop plant compatibility
How it was run: (§2)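 Effects were read visually as % versus untreated controls (0% = no effect, 100% = death) about 3 weeks post-treatment. Application was a post-emergence spray at the one-leaf stage of WP/EC formulations with 0.5% additive at 600 l/ha. Different dosages are denoted a, b and c.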

[2] = system: Amaranthus retroflexus (AMARE); assay: Post-emergence herbicidal action against AMARE
How it was run: (§3)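 Greenhouse plants sprayed at the one-leaf stage, 2–3 weeks after sowing, with WP or EC formulations plus 0.5% additive at 600 l/ha water. Activity rated visually after about 3 weeks versus untreated controls (100% = dead, 0% = like control), at 320 g/ha or lower.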

[3] = system: Abutilon theophrasti (ABUTH); assay: Post-emergence herbicidal action against ABUTH; conditions: visual rating about 3 weeks after treatment vs untreated controls (100% = plants have died, 0% = like control plants)
How it was run: as §3

Lolium rigidum (LOLRI) [4] = assay: Pre-emergence herbicidal action against LOLRI
How it was run: as §1

[5] = system: Matricaria inodora (MATIN); assay: Pre-emergence herbicidal action against MATIN
How it was run: as §1

[6] = system: Abutilon theophrasti (ABUTH); assay: Pre-emergence herbicidal action against ABUTH; conditions: 100% = plants have died
Excerpt: Seeds of monocotyledonous and dicotyledonous weed plants and crop plants are placed in plastic or organic planting pots and covered with soil. The compounds of the invention, formulated in the form of wettable powders (WP) or as emulsion concentrates (EC), are then applied to the surface of the covering soil as aqueous suspension or emulsion with addition of 0.5% additive at a water application rate equivalent to 600 l/ha. After the treatment, the pots are placed in a greenhouse and kept under good growth conditions for the trial plants. After about 3 weeks, the effect of the preparations is scored visually in comparison with untreated controls as percentages. For example, 100% activity=the plants have died, 0% activity=like control plants.
Tables A1 to A13 below show the effects of selected compounds of the general formula (I) on various harmful plants and at an application rate corresponding to 320 g/ha or lower, which were obtained by the experimental procedure mentioned above. The appendices “a”, “b” and “c” give differentiation by dosage used with otherwise the same harmful plants tested.

[7] = system: Verconica persica (VERPE); assay: Pre-emergence herbicidal action against VERPE
How it was run: as §1

[8] = system: Amaranthus retroflexus (AMARE); assay: Pre-emergence herbicidal action against AMARE; conditions: visual scoring after about 3 weeks vs untreated controls
How it was run: as §1

[9] = system: Alopecurus myosuroides (ALOMY); assay: Pre-emergence herbicidal action against ALOMY; conditions: scored visually after about 3 weeks, 100% = plants have died
How it was run: as §1

[10] = system: Pharbitis purpurea (PHBPU); assay: Post-emergence herbicidal action against PHBPU
How it was run: as §3

Lolium rigidum (LOLRI) [11] = assay: Post-emergence herbicidal action against LOLRI
How it was run: as §3

[12] = system: Echinochloa crus-galli (ECHCG); assay: Pre-emergence herbicidal action against ECHCG
How it was run: as §1

Setaria viridis (SETVI) [13] = assay: Post-emergence herbicidal action against SETVI
How it was run: as §3

Setaria viridis (SETVI) [14] = assay: Pre-emergence herbicidal action against SETVI
How it was run: as §1

Avena fatua (AVEFA) [15] = assay: Post-emergence herbicidal action against AVEFA; conditions: visual rating about 3 weeks after treatment
How it was run: as §3

Avena fatua (AVEFA) [16] = assay: Pre-emergence herbicidal action against AVEFA; conditions: visual scoring after about 3 weeks vs untreated controls
How it was run: as §1

[17] = system: Verconica persica (VERPE); assay: Post-emergence herbicidal action against VERPE
How it was run: as §3

[18] = system: Pharbitis purpurea (PHBPU); assay: Pre-emergence herbicidal action against PHBPU
How it was run: as §1

[19] = system: Polygonum convolvulus (POLCO); assay: Pre-emergence herbicidal action against POLCO
How it was run: as §1

[20] = system: Echinochloa crus-galli (ECHCG); assay: Post-emergence herbicidal action against ECHCG
How it was run: as §3

[21] = system: Alopecurus myosuroides (ALOMY); assay: Post-emergence herbicidal action against ALOMY; conditions: visual rating about 3 weeks after treatment vs untreated controls (100% = plants have died, 0% = like control plants)
How it was run: as §3

Viola tricolor (VIOTR) [22] = assay: Post-emergence herbicidal action against VIOTR; conditions: 320 g/ha
How it was run: as §3

Zea mays (ZEAMX) = conditions: crop plant compatibility, 80 g/ha, effect vs untreated controls
How it was run: as §2

[23] = 80 g/ha, effect in comparison to untreated controls
[24] = 80 g/ha, visual rating about 3 weeks after treatment vs untreated controls (100% = plants have died, 0% = like control plants)
[25] = Dosage column 320 g/ha (title prints 3200 g/ha), scored visually after about 3 weeks

SMILES	Pre-emergence action against VIOTR in % (Viola tricolor (VIOTR) [1]; 320 g/ha, Viola tricolor) [%]	Pre-emergence action against VIOTR in % (Viola tricolor (VIOTR) [1]; dosage 80 g/ha) [%]	Pre-emergence action against LOLRI in % (Lolium rigidum (LOLRI) [4]; dosage 80 g/ha) [%]	Pre-emergence action against LOLRI in % (Lolium rigidum (LOLRI) [4]; dosage 320 g/ha) [%]	Pre-emergence action against MATIN in % ([5]; dosage 320 g/ha) [%]	Pre-emergence action against ABUTH [6, 25] [%]	Pre-emergence action against VERPE in % ([7]; dosage 80 g/ha) [%]	Pre-emergence action against VERPE in % ([7]; dosage 320 g/ha) [%]	Pre-emergence action against AMARE in % ([8]; 80 g/ha) [%]	Pre-emergence action against AMARE in % ([8]; 320 g/ha) [%]	Pre-emergence action against ALOMY ([9]; 320 g/ha) [%]	Post-emergence action against PHBPU in % ([10]; dosage 80 g/ha) [%]	Post-emergence action against LOLRI in % (Lolium rigidum (LOLRI) [11]; dosage 80 g/ha) [%]	Pre-emergence action against ECHCG in % ([12]; dosage 320 g/ha) [%]	Pre-emergence action against SETVI in % (Setaria viridis (SETVI) [14]; dosage 320 g/ha) [%]	Pre-emergence action against AVEFA in % (Avena fatua (AVEFA) [16]; 320 g/ha) [%]	Pre-emergence action against PHBPU in % ([18]; dosage 320 g/ha) [%]	Pre-emergence action against POLCO in % ([19]; dosage 80 g/ha) [%]	Pre-emergence action against POLCO in % ([19]; dosage 320 g/ha) [%]	Post-emergence action against ECHCG in % ([20]; dosage 80 g/ha) [%]	further results
COC(=O)[C@@H](C)Oc1nn(-c2ccccn2)c(-c2cncc(F)c2)c1Br [Example I-83]	100	100	100	100	100	80	90	100	90	100	100	90	90	100	100	90	90	80	90	90	Post-emergence action against ORYSA in % (Oryza sativa (ORYSA); 20 g/ha, effect vs untreated controls): 0%; Post-emergence action against ORYSA in % (Oryza sativa (ORYSA); [23]): 20%; Post-emergence action against AMARE in % [2, 24]: 90%; Post-emergence action against ABUTH in % ([3]; 80 g/ha): 90%; Pre-emergence action against MATIN in % ([5]; dosage 80 g/ha): 90%; Pre-emergence action against ALOMY ([9]; 80 g/ha): 90%; Post-emergence action against SETVI in % (Setaria viridis (SETVI) [13]; dosage 80 g/ha): 90%; Pre-emergence action against SETVI in % (Setaria viridis (SETVI) [14]; dosage 80 g/ha): 90%; Post-emergence action against AVEFA in % (Avena fatua (AVEFA) [15]; 80 g/ha): 100%; Pre-emergence action against AVEFA in % (Avena fatua (AVEFA) [16]; 80 g/ha): 80%; Post-emergence action against VERPE in % ([17]; dosage 80 g/ha): 80%; Pre-emergence action against PHBPU in % ([18]; dosage 80 g/ha): 80%; Post-emergence action against ALOMY in % ([21]; 80 g/ha): 100%
CCOC(=O)[C@@H](C)Oc1nn(-c2nc(F)ccc2F)c(-c2cncc(F)c2)c1Br [Example I-388]	100	100	80	100	90	90	90	100	90	100	100	80	80	100	100	90	90	90	90	90	Post-emergence action against ABUTH in % ([3]; 320 g/ha): 80%; Pre-emergence action against MATIN in % ([5]; dosage 80 g/ha): 90%; Pre-emergence action against ALOMY ([9]; 80 g/ha): 80%; Post-emergence action against PHBPU in % ([10]; dosage 320 g/ha): 100%; Post-emergence action against LOLRI in % (Lolium rigidum (LOLRI) [11]; dosage 320 g/ha): 80%; Pre-emergence action against ECHCG in % ([12]; dosage 80 g/ha): 80%; Post-emergence action against VIOTR in % (Viola tricolor (VIOTR) [22]): 80%; Post-emergence action against SETVI in % (Setaria viridis (SETVI) [13]; dosage 80 g/ha): 90%; Post-emergence action against SETVI in % (Setaria viridis (SETVI) [13]; dosage 320 g/ha): 90%; Pre-emergence action against SETVI in % (Setaria viridis (SETVI) [14]; dosage 80 g/ha): 90%; Post-emergence action against AVEFA in % (Avena fatua (AVEFA) [15]; 320 g/ha): 80%; Post-emergence action against VERPE in % ([17]; 320 g/ha, VERPE): 80%; Post-emergence action against VERPE in % ([17]; dosage 80 g/ha): 80%; Pre-emergence action against PHBPU in % ([18]; dosage 80 g/ha): 90%; Post-emergence action against ECHCG in % ([20]; dosage 320 g/ha): 90%; Post-emergence action against ALOMY in % ([21]; 320 g/ha): 80%
COC(=O)[C@@H](C)Oc1nn(-c2nc(F)ccc2F)c(-c2ccc(F)nc2)c1Cl [Example I-332]	100	90	90	100	90	80	80	90	80	100	100	80	80	100	100	100	100	80	80	80	Post-emergence action against ORYSA in % (Oryza sativa (ORYSA); [23]): 20%; Post-emergence action against ZEAMX in % (Zea mays (ZEAMX)): 10%; Post-emergence action against AMARE in % [2, 24]: 80%; Post-emergence action against AMARE in % ([2]; 320 g/ha, visual rating about 3 weeks after treatment): 80%; Post-emergence action against ABUTH in % ([3]; 80 g/ha): 80%; Post-emergence action against ABUTH in % ([3]; 320 g/ha): 80%; Pre-emergence action against ABUTH ([6]; 80 g/ha, scored visually after about 3 weeks vs untreated controls, 0% = like control plants): 80%; Post-emergence action against PHBPU in % ([10]; dosage 320 g/ha): 80%; Post-emergence action against LOLRI in % (Lolium rigidum (LOLRI) [11]; dosage 320 g/ha): 90%; Pre-emergence action against ECHCG in % ([12]; dosage 80 g/ha): 80%; Post-emergence action against VIOTR in % (Viola tricolor (VIOTR) [22]): 80%; Post-emergence action against SETVI in % (Setaria viridis (SETVI) [13]; dosage 320 g/ha): 80%; Post-emergence action against AVEFA in % (Avena fatua (AVEFA) [15]; 80 g/ha): 80%; Post-emergence action against AVEFA in % (Avena fatua (AVEFA) [15]; 320 g/ha): 90%; Post-emergence action against VERPE in % ([17]; 320 g/ha, VERPE): 80%; Post-emergence action against ECHCG in % ([20]; dosage 320 g/ha): 90%; Post-emergence action against ALOMY in % ([21]; 80 g/ha): 80%; Post-emergence action against ALOMY in % ([21]; 320 g/ha): 90%
